Results from publication PMC11264232, “Are the metal identity and stoichiometry of metal complexes important for colchicine site binding and inhibition of tubulin polymerization?” (Dalton Transactions (Cambridge, England : 2003), 2024).
Several values for one entry are separate records, joined by “and”; a condition that tells them apart may be missing. Equal entries are not always repeated. Where two headings read alike, the source gives them in different places. Marks after values point to notes of the source that are not given here.

Columns and labels:
purified tubulin = experiment: Inhibition of tubulin polymerization; type: biochemical; conditions: read-out: Inhibition of tubulin polymerization IC50 ± SD
From the text: As a reference for comparison, combretastatin A-4 (CA-4) and Cu(HL^1)Cl2 were used.
(§1) The methods used for determination of the IC50 values for tubulin assembly and inhibition of [^3H]colchicine binding were as described previously.[77]

[1] = test system: tubulin (colchicine site); experiment: Inhibition of [3H]colchicine binding to tubulin; conditions: tubulin 0.5 μM, [3H]colchicine 5 μM
From the text: as §1

[2] = Cyclic voltammetry in DMSO/nBu4NPF6; type: physicochemical; conditions: scan rate 100 mV s^−1
Protocol: Cyclic voltammetric experiments with 0.5 mM solutions of 1–3 in 0.1 M nBu4NPF6 (puriss quality from Fluka (Schwerte, Germany), dried under reduced pressure at 70 °C for 24 h before use) supporting electrolyte in DMSO (SeccoSolv max. 0.025% H2O, Merck) were performed under argon atmosphere using a three-electrode setup with a platinum disk or a glassy carbon disk working electrode (from Ionode, Australia), platinum wire as a counter electrode, and silver wire as a pseudo reference electrode. All potentials in voltammetric studies were quoted vs. ferricenium/ferrocene (Fc^+/Fc) redox couple. A Heka PG310USB (Lambrecht, Germany) potentiostat with a PotMaster 2.73 software package served for the potential control in voltammetric studies. In situ ultraviolet-visible-near-infrared (UV–Vis–NIR) spectroscopic and spectroelectrochemical measurements were performed on a spectrometer Avantes (Model AvaSpec-2048_14-USB2) in 1 cm quartz cuvette or the spectroelectrochemical cell kit ([…]3) with the Pt-microstructured honeycomb working electrode, purchased from Pine Research Instrumentation (Lyon, France). The cell was positioned in the CUV-UV Cuvette Holder (Ocean Optics, Ostfildern, Germany) connected to the diode-array UV–Vis–NIR spectrometer by optical fibres. UV–Vis–NIR spectra were processed using the AvaSoft 7.7 software package. Halogen and deuterium lamps were used as light sources (Avantes, Model AvaLight-DH-S-BAL, Apeldoorn, The Netherlands). EPR spectra were measured with a X-band cw-EPR spectrometers EMX and EMX plus (Bruker) at room temperature or 100 K. Spectroelectrochemical experiments were performed in a flat cell equipped with a Pt mesh working electrode using nBu4NPF6/DMSO electrolyte. Measurements in frozen solvent glass were done in MeCN/DMF 1 : 1 v/v. Complexes 4 and 5 were dissolved under ambient conditions, and complex 3 was reduced with a stoichiometric equivalent of cobaltocene in a N2 glovebox (N2 < 2 ppm, H2O < 1 ppm). The MeCN/DMF solutions were flash frozen in liquid N2 prior to transfer to the N2 flow cryostat precooled at 100 K inside the cavity of the EPR resonator. EPR spectra were analyzed with the Easyspin toolbox,[75] running on Matlab.

[3] = test system: MRC-5 human lung fibroblast cells; experiment: MTT viability assay, 24 h; conditions: Homo sapiens, MRC5, 24 h, read-out: IC50 values MRC-5
[4] = test system: A549 human lung adenocarcinoma cells; experiment: MTT viability assay, 24 h; conditions: Homo sapiens, A549, 24 h, read-out: IC50 values A549
[5] = pKa by pH-potentiometric titration; type: physicochemical; conditions: 30% (v/v) DMSO/H2O, 25.0 °C, I = 0.1 M (KCl), anoxic
Protocol: Therefore, the proton dissociation constants (pKa) of the proligands HL^1–HL^3 were determined under anoxic conditions by pH-potentiometric titrations (Fig. S14 in the ESI ^†). As this method requires relatively high compound concentrations (>1 mM), the measurements were performed in 30% (v/v) DMSO to achieve the required solubility. Three pKa values were determined for the proligands HL^1 and HL^2, whereas only two constants, as expected, were obtained for phenyl derivative HL^3 (Table 3). The constants obtained were assigned to the deprotonation NmorpholiniumH^+ (NmorphH^+), NhydrazineH (NhydrH) and OH moieties for HL^1 and HL^2, and to the NmorphH^+ and NhydrH for HL^3, respectively. It should be noted that we could not determine pKa values for the pyridinium group as its deprotonation in all three instances took place at fairly low pH values (pH < 2) due to the electron withdrawing effect of the protonated morpholinium moiety. The determined pKa values indicate that these compounds are in their neutral HL form at pH 7.4 and only a minor fraction (1–3%) is protonated ((HL)H^+) at the morpholinium nitrogen (Table 3).

[6] = n-octanol/water partitioning (shake-flask), log D; conditions: n-octanol/buffered aqueous solution, pH 6

| SMILES | IC50 [4] [µM] | pKa ([5]; read-out: pKa (NhydrH)) | pKa ([5]; read-out: pKa (NmorphH^+)) | pKa ([5]; read-out: pKa (OH)) | logD [6] | IC50 (purified tubulin) [µM] | Inhibition of colchicine binding, % inhibition ± SD ([1]; 5 μM inhibitor) [%] | 1st oxidation potential (peak potential Ep) [2] | 1st reduction potential (E1/2 or Ep) [2] | 2nd reduction potential (E1/2 or Ep) [2] | Inhibition of colchicine binding, % inhibition ± SD ([1]; 25 μM inhibitor) [%] | IC50 [3] [µM] |
| --- | --- | --- | --- | --- | --- | --- | --- | --- | --- | --- | --- | --- |
| COc1ccc(/C=C\c2cc(OC)c(OC)c(OC)c2)cc1O [C-A4, combretastatin A-4, reference compound] | – | – | – | – | – | […] | 97 ± 0.5 | – | – | – | – | – |
| Cc1cc(NC([S-])=NN=Cc2cccc(CN3CCOCC3)n2)cc(C)c1O.[Cl-].[Ni+2] [Complex 6, [Ni^II(L^1)]Cl] | – | – | – | – | – | > 20 | – | 0.12 volts vs. Fc^+/Fc and 0.12^i* volts vs. Fc^+/Fc | −1.29 volts vs. Fc^+/Fc and −1.29^q volts vs. Fc^+/Fc | −1.87 volts vs. Fc^+/Fc and −1.87^q volts vs. Fc^+/Fc | – | – |
| Cc1cc(NC([S-])=NN=Cc2cccc(C[NH+]3CCOCC3)n2)cc(C)c1O.[Cl-].[Cl-].[Pd+2] [Complex 8, [Pd^II(HL^1)Cl]Cl] | – | – | – | – | – | 6.5 ± 1 | 13 ± 5 | 0.28 volts vs. Fc^+/Fc and 0.28^i* volts vs. Fc^+/Fc | −0.91^q volts vs. Fc^+/Fc | −1.28^q volts vs. Fc^+/Fc | 97 ± 1 | – |

Second part, led by results:

| IC50 [4] [µM] | pKa ([5]; read-out: pKa (NhydrH)) | pKa ([5]; read-out: pKa (NmorphH^+)) | pKa ([5]; read-out: pKa (OH)) | logD [6] | SMILES | IC50 (purified tubulin) [µM] | Inhibition of colchicine binding, % inhibition ± SD ([1]; 5 μM inhibitor) [%] | 1st oxidation potential (peak potential Ep) [2] | 1st reduction potential (E1/2 or Ep) [2] | 2nd reduction potential (E1/2 or Ep) [2] | Inhibition of colchicine binding, % inhibition ± SD ([1]; 25 μM inhibitor) [%] | IC50 [3] [µM] |
| --- | --- | --- | --- | --- | --- | --- | --- | --- | --- | --- | --- | --- |
| 72.8 ± 1.22 | 10.44 ± 0.03 | 5.54 ± 0.03 | 12.12 ± 0.02 | 1.23 | Cc1cc(NC(=S)N/N=C/c2cccc(CN3CCOCC3)n2)cc(C)c1O [HL^1, 6-morpholinomethyl-2-formylpyridine 4N-(4-hydroxy-3,5-dimethylphenyl)-3-thiosemicarbazone] | – | – | – | – | – | – | > 80 |
| > 80 | 10.41 ± 0.03 | 5.85 ± 0.04 | 12.23 ± 0.02 | 1.5 | C/C(=N\NC(=S)Nc1cc(C)c(O)c(C)c1)c1cccc(CN2CCOCC2)n1 [HL^2, 6-morpholinomethyl-2-acetylpyridine 4N-(4-hydroxy-3,5-dimethylphenyl)-3-thiosemicarbazone] | – | – | – | – | – | – | > 80 |
| > 80 | 10.44 ± 0.03 | 5.55 ± 0.02 | – | 2.06 | S=C(N/N=C/c1cccc(CN2CCOCC2)n1)Nc1ccccc1 [HL^3, 6-morpholinomethyl-2-formylpyridine 4N-phenyl-3-thiosemicarbazone] | – | – | – | – | – | – | > 80 |
